{"source": "patent US9200046B2", "about": "“Reporter system for high throughput screening of compounds and uses thereof” (priority 2011, dated 2015)", "molecular_target": "Nrf2-Keap1 complex (Homo sapiens, UniProt Q14145)", "sequence (Q14145 whole entry, one chain of several)": "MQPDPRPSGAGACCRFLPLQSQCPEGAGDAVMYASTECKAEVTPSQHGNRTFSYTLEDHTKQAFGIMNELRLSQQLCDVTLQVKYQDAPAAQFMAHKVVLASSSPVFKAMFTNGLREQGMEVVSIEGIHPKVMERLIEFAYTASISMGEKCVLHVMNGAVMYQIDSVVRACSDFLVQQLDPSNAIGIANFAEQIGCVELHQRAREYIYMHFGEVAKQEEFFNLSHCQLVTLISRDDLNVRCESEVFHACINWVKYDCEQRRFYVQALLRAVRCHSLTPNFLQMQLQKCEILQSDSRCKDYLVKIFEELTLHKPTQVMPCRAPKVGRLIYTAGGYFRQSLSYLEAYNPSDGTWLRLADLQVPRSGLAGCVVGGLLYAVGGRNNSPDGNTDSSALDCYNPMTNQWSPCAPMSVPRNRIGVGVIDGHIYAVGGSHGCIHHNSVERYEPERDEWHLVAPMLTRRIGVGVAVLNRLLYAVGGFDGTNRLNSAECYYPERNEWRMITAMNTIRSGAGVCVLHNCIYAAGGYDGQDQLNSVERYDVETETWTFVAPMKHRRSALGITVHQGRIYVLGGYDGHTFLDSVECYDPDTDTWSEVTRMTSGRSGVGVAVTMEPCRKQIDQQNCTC", "assay": "cell-based", "format": "cell-based", "conditions": "for activation at 16 µM / activation at 32 µM: 3 h; for activation at 16 µM: read-out: Activation 100 nL; for activation at 32 µM: read-out: Activation 200 nL", "key": {"[1]": {"conditions": "Table 2, 100 nL compound, screen run at 16 and 32 μM, 3 hr"}, "[2]": {"conditions": "Table 2, 200 nL compound, screen run at 16 and 32 μM, 3 hr"}, "[3]": {"conditions": "Table 1A, 100 nL compound, screen run at 16 and 32 μM, 3 hr"}, "[4]": {"conditions": "Table 1A, 200 nL compound, screen run at 16 and 32 μM, 3 hr"}}, "note": "Values joined by “and” are separate entries in the source; they are usually repeats but may differ in a detail not shown here. Equal entries are not always repeated. Where two headings read alike, the source gives them in different places."}
{"compound": "CC(C)=CCC1=C(O)C(=O)c2ccccc2C1=O", "note": "[LAPACHOL]", "values": [{"measurement": "activation at 16 µM", "result": 47, "unit": "%"}, {"measurement": "activation at 32 µM", "result": 24, "unit": "%"}]}
{"compound": "CNC(=O)CSP(=S)(OC)OC", "note": "[DIMETHOATE]", "values": [{"measurement": "activation at 16 µM", "result": 59, "unit": "%"}, {"measurement": "activation at 32 µM", "result": 145, "unit": "%"}, {"measurement": "100 nL (luminescence)", "setting": "[1]", "result": 1148}, {"measurement": "200 nL (luminescence)", "setting": "[2]", "result": 3772}]}
{"compound": "CCCSc1ccc2nc(NC(=O)OC)[nH]c2c1", "note": "[ALBENDAZOLE, reference compound]", "values": [{"measurement": "100 nL (luminescence)", "result": 4200}, {"measurement": "200 nL (luminescence)", "result": 5292}, {"measurement": "activation at 16 µM", "result": 191, "unit": "%"}, {"measurement": "activation at 32 µM", "result": 272, "unit": "%"}]}
{"compound": "CCOP(=S)(OCC)Oc1nc(Cl)c(Cl)cc1Cl", "note": "[CHLORPYRIFOS]", "values": [{"measurement": "activation at 16 µM", "result": 90, "unit": "%"}, {"measurement": "activation at 32 µM", "result": 55, "unit": "%"}, {"measurement": "100 nL (luminescence)", "setting": "[1]", "result": 1572}, {"measurement": "200 nL (luminescence)", "setting": "[2]", "result": 1704}]}
{"compound": "CSc1nc(NC(C)C)nc(NC(C)C)n1", "note": "[PROMETRYN]", "values": [{"measurement": "activation at 16 µM", "result": 67, "unit": "%"}, {"measurement": "activation at 32 µM", "result": 4, "unit": "%"}, {"measurement": "100 nL (luminescence)", "setting": "[1]", "result": 1264}, {"measurement": "200 nL (luminescence)", "setting": "[2]", "result": 542}]}
{"compound": "COc1c(O)cc2c(-c3ccccc3)cc(=O)oc2c1OC", "note": "[KUHLMANNIN]", "values": [{"measurement": "activation at 16 µM", "result": 26, "unit": "%"}, {"measurement": "activation at 32 µM", "result": 33, "unit": "%"}, {"measurement": "100 nL (luminescence)", "setting": "[1]", "result": 596}, {"measurement": "200 nL (luminescence)", "setting": "[2]", "result": 1104}]}
{"compound": "CC(C)CCCC1(C)C=Cc2c(O)c3c(c(CCC(C)C)c2O1)OC12C(CC4CC1C(C)(C)OC2(CCC(C)C(=O)O)C4O)C3=O", "note": "(stereo not shown) [DECAHYDROGAMBOGICACID]", "values": [{"measurement": "activation at 16 µM", "result": 54, "unit": "%"}, {"measurement": "activation at 32 µM", "result": 40, "unit": "%"}, {"measurement": "100 nL (luminescence)", "setting": "[1]", "result": 1184}, {"measurement": "200 nL (luminescence)", "setting": "[2]", "result": 936}]}
{"compound": "O=C(/C=C/c1ccccc1)c1ccc(O)cc1O", "note": "[2′,4′-DIHYDROXYCHALCONE]", "values": [{"measurement": "activation at 16 µM", "result": 227, "unit": "%"}, {"measurement": "activation at 32 µM", "result": 45, "unit": "%"}, {"measurement": "100 nL (luminescence)", "setting": "[1]", "result": 2352}, {"measurement": "200 nL (luminescence)", "setting": "[2]", "result": 1388}]}
{"compound": "CC1(C)C2(Cl)C(Cl)C(Cl)C(Cl)(C(Cl)Cl)C1(Cl)C2Cl", "note": "(stereo not shown) [STROBANE]", "values": [{"measurement": "activation at 16 µM", "result": 388, "unit": "%"}, {"measurement": "activation at 32 µM", "result": 235, "unit": "%"}, {"measurement": "100 nL (luminescence)", "setting": "[1]", "result": 5556}, {"measurement": "200 nL (luminescence)", "setting": "[2]", "result": 5836}]}
{"compound": "CC1(C)C(=O)C=C[C@]2(C)[C@H]3CC[C@@]4(C)[C@H](c5ccoc5)OC(=O)[C@H]5O[C@]54[C@]3(C)[C@H](O)C[C@@H]12", "note": "[DEACETYLGEDUNIN]", "values": [{"measurement": "activation at 16 µM", "result": 69, "unit": "%"}, {"measurement": "activation at 32 µM", "result": -7, "unit": "%"}, {"measurement": "100 nL (luminescence)", "setting": "[1]", "result": 1412}, {"measurement": "200 nL (luminescence)", "setting": "[2]", "result": 220}]}
{"compound": "O=[N+]([O-])c1cccc2c(Br)n[nH]c12", "note": "[3-BROMO-7-NITROINDAZOLE]", "values": [{"measurement": "hit strength in the screen (words)", "result": "modest hits"}, {"measurement": "activation at 16 µM", "result": 30, "unit": "%"}, {"measurement": "activation at 32 µM", "result": 8, "unit": "%"}, {"measurement": "100 nL (luminescence)", "setting": "[3]", "result": 632}, {"measurement": "200 nL (luminescence)", "setting": "[4]", "result": 512}]}
{"compound": "COc1cc(OC)c2c(=O)c(O)c(-c3ccc(OC)c(OC)c3)oc2c1", "values": [{"measurement": "Activation 100 nL", "result": 29, "unit": "%"}, {"measurement": "Activation 200 nL", "result": 8, "unit": "%"}, {"measurement": "100 nL (luminescence)", "setting": "[1]", "result": 760}, {"measurement": "200 nL (luminescence)", "setting": "[2]", "result": 644}]}
{"compound": "COc1ccc2c(c1)OCC(Cc1ccc(O)c(OC)c1)C2=O", "note": "(stereo not shown)", "values": [{"measurement": "100 nL (luminescence)", "result": "1416 and 900"}]}
{"compound": "C=C(NC(=O)C(=C)NC(=O)c1csc(C2=N[C@@H]3c4csc(n4)[C@H]4NC(=O)c5csc(n5)[C@H]([C@](C)(O)[C@@H](C)O)NC(=O)[C@H]5CSC(=N5)/C(=C/C)NC(=O)[C@H]([C@@H](C)O)NC(=O)c5csc(n5)[C@]3(CC2)NC(=O)[C@H](C)NC(=O)C(=C)NC(=O)[C@H](C)NC(=O)[C@H]([C@@H](C)CC)N[C@@H]2C=Cc3c([C@H](C)O)cc(nc3[C@H]2O)C(=O)O[C@@H]4C)n1)C(N)=O", "note": "[THIOSTREPTON, reference compound]", "values": [{"measurement": "activation at 16 µM", "result": 58, "unit": "%"}, {"measurement": "activation at 32 µM", "result": 50, "unit": "%"}, {"measurement": "100 nL (luminescence)", "setting": "[3]", "result": 876}, {"measurement": "200 nL (luminescence)", "setting": "[4]", "result": 1504}]}
{"compound": "O=C1c2cccc(O)c2C(=O)c2c(O)cccc21", "note": "[DANTRON, reference compound]", "values": [{"measurement": "activation at 16 µM", "result": 29, "unit": "%"}, {"measurement": "activation at 32 µM", "result": 29, "unit": "%"}, {"measurement": "100 nL (luminescence)", "setting": "[1]", "result": 616}, {"measurement": "200 nL (luminescence)", "setting": "[2]", "result": 1020}]}
{"compound": "CC1(C)C(=O)C=C[C@]2(C)[C@H]3CC[C@@]4(C)[C@H](c5ccoc5)OC(=O)[C@H]5O[C@]54[C@]3(C)C(=O)C[C@@H]12", "note": "[DEACETOXY-7-OXOGEDUNIN]", "values": [{"measurement": "Activation 100 nL", "result": 45, "unit": "%"}, {"measurement": "Activation 200 nL", "result": 8, "unit": "%"}, {"measurement": "100 nL (luminescence)", "setting": "[1]", "result": 1048}, {"measurement": "200 nL (luminescence)", "setting": "[2]", "result": 448}]}
{"compound": "O=C1OC(=O)[C@H]2[C@@H]1[C@@H]1CC[C@H]2O1", "note": "[NORCANTHARIDIN]", "values": [{"measurement": "Activation 100 nL", "result": 45, "unit": "%"}, {"measurement": "Activation 200 nL", "result": 10, "unit": "%"}, {"measurement": "100 nL (luminescence)", "setting": "[1]", "result": 756}, {"measurement": "200 nL (luminescence)", "setting": "[2]", "result": 572}]}
{"compound": "O=C(CCBr)N1CCN(C(=O)CCBr)CC1", "note": "[PIPOBROMAN, reference compound]", "values": [{"measurement": "100 nL (luminescence)", "result": 1976}, {"measurement": "200 nL (luminescence)", "result": 3732}, {"measurement": "activation at 16 µM", "result": 79, "unit": "%"}, {"measurement": "activation at 32 µM", "result": 185, "unit": "%"}]}
{"compound": "CC(=O)NCCc1c[nH]c2ccc(O)cc12", "note": "[ACETYLSEROTONIN]", "values": [{"measurement": "activation at 16 µM", "result": 61, "unit": "%"}, {"measurement": "activation at 32 µM", "result": 31, "unit": "%"}, {"measurement": "100 nL (luminescence)", "setting": "[3]", "result": 900}, {"measurement": "200 nL (luminescence)", "setting": "[4]", "result": 1056}]}
{"compound": "CC1=C2C(=CO[C@H](C)[C@H]2C)C(O)=C(C(=O)O)C1=O", "note": "[CITRININ]", "values": [{"measurement": "activation at 16 µM", "result": 219, "unit": "%"}, {"measurement": "activation at 32 µM", "result": 217, "unit": "%"}]}
{"compound": "COc1ccc(/C=C/C(=O)c2cc(O)ccc2O)cc1", "note": "[2′,5′-DIHYDROXY-4-METHOXYCHALCONE]", "values": [{"measurement": "activation at 16 µM", "result": 322, "unit": "%"}, {"measurement": "activation at 32 µM", "result": 20, "unit": "%"}, {"measurement": "100 nL (luminescence)", "setting": "[1]", "result": 3188}, {"measurement": "200 nL (luminescence)", "setting": "[2]", "result": 800}]}
{"compound": "COc1cccc(O)c1O", "note": "[3-METHOXYCATECHOL]", "values": [{"measurement": "activation at 16 µM", "result": 28, "unit": "%"}, {"measurement": "activation at 32 µM", "result": -15, "unit": "%"}, {"measurement": "100 nL (luminescence)", "setting": "[1]", "result": 736}, {"measurement": "200 nL (luminescence)", "setting": "[2]", "result": 116}]}
{"compound": "C=C(C)[C@@H]1CC[C@]2(C(=O)O)CC[C@]3(C)[C@H](CC[C@@H]4[C@@]5(C)CC[C@H](O)C(C)(C)[C@@H]5CC[C@]43C)[C@@H]12", "note": "[BETULINICACID]", "values": [{"measurement": "activation at 16 µM", "result": 54, "unit": "%"}, {"measurement": "activation at 32 µM", "result": 85, "unit": "%"}]}
{"compound": "COc1ccc(-c2oc3cc(O[C@@H]4O[C@H](CO)[C@@H](O)[C@H](O)[C@H]4O)c(OC)c(O)c3c(=O)c2OC)cc1O", "note": "[CENTAUREIN]", "values": [{"measurement": "activation at 16 µM", "result": 41, "unit": "%"}, {"measurement": "activation at 32 µM", "result": 19, "unit": "%"}, {"measurement": "100 nL (luminescence)", "setting": "[1]", "result": 916}, {"measurement": "200 nL (luminescence)", "setting": "[2]", "result": 876}]}
{"compound": "COc1ccc2ccc(=O)oc2c1CC=C(C)C", "note": "[OSTHOL]", "values": [{"measurement": "Activation 100 nL", "result": 58, "unit": "%"}, {"measurement": "Activation 200 nL", "result": 52, "unit": "%"}, {"measurement": "100 nL (luminescence)", "setting": "[1]", "result": 1136}, {"measurement": "200 nL (luminescence)", "setting": "[2]", "result": 1634}]}
{"compound": "Cn1cnc([N+](=O)[O-])c1Sc1[nH]cnc2ncnc1-2", "note": "[AZATHIOPRINE, reference compound]", "values": [{"measurement": "100 nL (luminescence)", "result": 948}, {"measurement": "200 nL (luminescence)", "result": 1804}, {"measurement": "hit strength in the screen (words)", "result": "modest hits"}, {"measurement": "activation at 16 µM", "result": 49, "unit": "%"}, {"measurement": "activation at 32 µM", "result": 70, "unit": "%"}]}
